In patent US11390621B2, “Chiral indole compounds and their use” (ARIAGEN, INC., priority 2019, dated 2022):
Several values for one entry are separate records, joined by “and”; a condition that tells them apart may be missing. Equal values may be shown once.

Tests used:
[1] = Hepatocyte intrinsic clearance assay (metabolic stability), rat hepatocytes; format: in vitro ADME; details: rat, cryopreserved hepatocytes, Rat Hepatocytes, 1 μM test compound
Source text: (§1) The liver is an important organ in the body for drug metabolism. This Example describes hepatocyte intrinsic clearance assays using both human and rat hepatocytes to evaluate the metabolic stability of the indole compounds disclosed herein. The parameters measured include t1/2 (half-life), CLint (intrinsic clearance), and EH (hepatic extraction ratio).
(§2) Testosterone (Lot FE111011-01) was obtained from Cerilliant (Round Rock, Tex.). 7-hydroxycoumarin (Lot 11631ED) was obtained from Sigma Aldrich (St. Louis, Mo.). Cryopreserved human hepatocytes pooled from ten donor males (X008001), cryopreserved male IRC/CD-1 mouse hepatocytes (M005052), INVITROGRO HI Medium (incubation), and INVITROGRO HT Medium (thawing) were obtained from Bioreclamation IVT (Baltimore, Md.). All solvents were obtained from commercial sources and used without further purification.
(§3) Each test compound was prepared as a 1 mM stock solution in DMSO. A 2 μM solution of test compound and positive controls were prepared in INVITROGRO HI Medium (incubation). These solutions were pre-warmed in a sterile incubator set to maintain 37° C., 5% CO2, and 98% humidity. Cryopreserved hepatocytes were prepared at a concentration of 2×10^6 living cells/mL in incubation media and pre-warmed in the incubator. The compound solutions and hepatocyte mixtures were then combined at a ratio of 1:1 (v:v). The final volume of the reaction mixture was 750 μL, containing 1 μM test compound (10 μM for 7-hydroxycoumarin) and […]. The reaction mixture was placed in the incubator on a plate shaker. After 0, 15, 30, 60, 90, and 120 minutes of incubation, 100 μL of reaction mixtures were removed from the incubation plate and mixed with 150 μL of ice-cold acetonitrile in a designated well of a 96-well crash plate. The 96-well crash plate was placed on ice for 15 min, and samples were centrifuged (3,600 RPM, 10 min, 4° C.) to precipitate protein. The supernatants were diluted 1:1 (v:v) with water containing 0.15 μM verapamil and/or 1 μM tolbutamide (internal standards for positive and negative modes, respectively) in a 96-well shallow injection plate. This plate was sealed for LC-MS analysis. All measurements were done in duplicate.
(§4) The residual compound remaining (% R) was determined from LC-MS peak areas by comparison to the zero time point. Metabolic half-life (t1/2) and intrinsic clearance (CLint) values were calculated from the slope of the plot of ln (% R) vs. time and the concentration of hepatocytes present in the incubation. Percent remaining at 60 minutes was calculated by plugging in the 60 minute value into the slope equation generated by the percent remaining time points.
(§5) In vivo hepatic clearance CLH was calculated using the well stirred liver model according to the following equation:
(§6) [formula] where QH is the total liver blood flow, fu is unbound fraction of the drug, and CL′int is defined as follows: CL′int=CLint×(10^6 cells/g of liver weight)×(g liver weight/kg of body weight). In the first approximation, used in this study, fu=1.
(§7) Hepatic extraction ratio EH was calculated using the following equation:
(§8) [formula] Corresponding physiological parameters used in calculations for all species are shown below in Table 3.

rat hepatocytes = experiment: as above; format: in vitro ADME; details: Rat Hepatocytes; for EH (hepatic extraction ratio): well stirred liver model, fu=1
Source text: as §1, §2, §3, §4, §5, §6, §7, §8

[2] = Hepatocyte intrinsic clearance assay (metabolic stability), human hepatocytes; format: in vitro ADME; details: male, human, cryopreserved pooled hepatocytes, Human Hepatocytes, 1 μM test compound
Source text: as §1, §2, §3, §4, §5, §6, §7, §8

human hepatocytes = experiment: as above; format: in vitro ADME; details: Human Hepatocytes; for EH (hepatic extraction ratio): well stirred liver model, fu=1
Source text: as §1, §2, §3, §4, §5, §6, §7, §8

AhR = biological target: T1, AhR (Homo sapiens, UniProt P35869); experiment: EROD assay (7-ethoxy-resorufin-O-deethylase; CYP1A1 activity) in human HepG2 cells; format: cell-based
T1 construct: host or cells: human HepG2 cells
T1 sequence (P35869 11-848): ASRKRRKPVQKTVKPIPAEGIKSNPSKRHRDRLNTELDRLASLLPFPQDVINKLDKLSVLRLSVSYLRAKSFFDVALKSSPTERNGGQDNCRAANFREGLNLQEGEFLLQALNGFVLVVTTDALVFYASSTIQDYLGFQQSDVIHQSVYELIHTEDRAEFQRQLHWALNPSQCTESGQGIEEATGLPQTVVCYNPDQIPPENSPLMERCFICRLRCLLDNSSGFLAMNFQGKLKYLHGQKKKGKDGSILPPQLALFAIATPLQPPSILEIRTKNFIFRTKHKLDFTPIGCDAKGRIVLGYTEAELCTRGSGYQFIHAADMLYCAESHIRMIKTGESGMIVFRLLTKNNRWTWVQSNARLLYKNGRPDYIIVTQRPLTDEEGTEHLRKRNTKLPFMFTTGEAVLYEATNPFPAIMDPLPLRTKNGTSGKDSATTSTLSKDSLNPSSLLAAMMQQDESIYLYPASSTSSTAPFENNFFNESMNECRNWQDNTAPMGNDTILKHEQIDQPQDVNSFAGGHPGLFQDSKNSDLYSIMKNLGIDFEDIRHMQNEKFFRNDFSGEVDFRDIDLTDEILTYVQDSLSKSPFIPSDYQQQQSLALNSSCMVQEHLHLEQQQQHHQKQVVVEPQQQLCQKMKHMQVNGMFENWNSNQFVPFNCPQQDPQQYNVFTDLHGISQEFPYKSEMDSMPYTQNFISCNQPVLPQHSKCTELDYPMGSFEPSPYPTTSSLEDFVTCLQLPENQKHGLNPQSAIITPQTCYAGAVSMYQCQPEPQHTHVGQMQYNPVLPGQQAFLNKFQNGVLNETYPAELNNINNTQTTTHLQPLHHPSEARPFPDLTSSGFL
Description: CYP1A1 induction is under the control of the AhR signaling pathway. This Example describes an in vitro assay (7-ethoxy-resorufin-O-deethylase (EROD) assay) that evaluated the AhR modulating activities of the indole compounds described herein. In this assay, the indole compounds were incubated with human HepG2 cells or mouse Hepa1-6 cells. The activity of CYP1A1 in the cells was measured by the conversion of substrate 7-ethoxyresorufin, with the readout being a fluorescence signal associated with the conversion product. The EC50 values of the indole compounds as well as the maximum luminescence induced by them in the assay were determined.
Human HepG2 cells were obtained from Sigma Aldrich (Catalog 85011430-1VL).
Human HepG2 cells were grown to 60-80% confluency in tissue culture flasks, lifted with non-enzymatic cell dissociation solution (cell stripper), seeded in a 384-well plate at 5,000 cells per well, treated with the test compounds, and incubated for 20 hours overnight at 37° C. The treatment medium was removed and a solution of substrate 7-ethoxyresorufin (ETX) was added to initiate the reaction. The plate was incubated at 37° C. for 30 minutes. The reaction was subsequently terminated by adding tempered methanol. Fluorescent emission was measured at 590 nm with excitation at 530 nm in a FLEXSTATION III instrument (Molecular Devices).

[3] = CYP profiling: turnover in human liver microsomes, 30 min, no inhibitor; format: in vitro ADME; design: % Compound Metabolized at 30 min, No Inhibitor: concentration or dose not given beside the values; details: HLMs
Description: (§9) In order to investigate the contributions of CYP1A2 and CYP3A4 to the metabolism of the compounds of the present disclosure, human liver microsomes were incubated with the test compounds for 30 minutes in the presence of selective chemical inhibitors furafylline (1A2) and ketoconazole (3A4).

CYP3A4 = biological target: T2, CYP3A4 (Homo sapiens, UniProt P08684); experiment: CYP profiling: human liver microsomes with CYP3A4 inhibitor ketoconazole; format: in vitro ADME; design: % Compound Metabolized at 30 min, CYP3A4 Inhibitor: concentration or dose not given beside the values; details: HLMs; for % Inhibition Relative to Negative Control, 3A4: 30 min
T2 construct: from tissue; host or cells: human liver microsomes
Description: as §9

CYP1A2 = biological target: T3, CYP1A2 (Homo sapiens, UniProt P05177); experiment: CYP profiling: human liver microsomes with CYP1A2 inhibitor furafylline; format: in vitro ADME; design: % Compound Metabolized at 30 min, CYP1A2 Inhibitor: concentration or dose not given beside the values; details: HLMs; for % Inhibition Relative to Negative Control, 1A2: 30 min
T3 construct: from tissue; host or cells: human liver microsomes
T3 sequence (P05177 1-516): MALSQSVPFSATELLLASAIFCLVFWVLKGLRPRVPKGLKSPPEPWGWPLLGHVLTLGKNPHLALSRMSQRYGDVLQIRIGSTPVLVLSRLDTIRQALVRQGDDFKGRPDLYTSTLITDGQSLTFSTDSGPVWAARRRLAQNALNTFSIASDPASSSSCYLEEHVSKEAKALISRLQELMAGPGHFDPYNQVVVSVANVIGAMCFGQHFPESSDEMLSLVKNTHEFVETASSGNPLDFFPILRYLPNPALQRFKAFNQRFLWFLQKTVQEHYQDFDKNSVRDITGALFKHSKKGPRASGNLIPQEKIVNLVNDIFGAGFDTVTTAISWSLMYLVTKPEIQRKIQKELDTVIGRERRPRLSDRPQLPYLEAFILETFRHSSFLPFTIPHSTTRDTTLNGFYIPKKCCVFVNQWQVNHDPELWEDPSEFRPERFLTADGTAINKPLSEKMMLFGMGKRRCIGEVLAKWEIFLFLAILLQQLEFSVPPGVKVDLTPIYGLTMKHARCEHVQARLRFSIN
Description: as §9

[4] = HepG2, human HepG2 cells, Plate 1

T2 sequence (P08684 whole entry): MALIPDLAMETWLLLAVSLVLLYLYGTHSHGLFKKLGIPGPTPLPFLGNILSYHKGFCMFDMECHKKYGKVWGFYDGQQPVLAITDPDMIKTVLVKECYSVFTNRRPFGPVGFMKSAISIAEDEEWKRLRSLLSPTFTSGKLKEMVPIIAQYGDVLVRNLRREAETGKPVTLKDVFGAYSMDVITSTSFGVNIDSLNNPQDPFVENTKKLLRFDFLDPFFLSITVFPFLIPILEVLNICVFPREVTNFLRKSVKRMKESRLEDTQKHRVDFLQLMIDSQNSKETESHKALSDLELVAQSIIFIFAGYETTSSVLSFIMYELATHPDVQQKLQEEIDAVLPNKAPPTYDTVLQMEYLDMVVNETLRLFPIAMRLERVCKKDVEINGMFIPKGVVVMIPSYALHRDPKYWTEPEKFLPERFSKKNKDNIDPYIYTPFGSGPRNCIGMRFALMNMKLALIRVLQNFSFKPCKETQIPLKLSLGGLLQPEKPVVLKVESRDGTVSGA

Row | SMILES | half-life at 1 μM [1] | hepatocyte CLint at 1 μM [1] | EH (hepatic extraction ratio) (rat hepatocytes) | half-life at 1 μM [2] | hepatocyte CLint at 1 μM [2] | EH (hepatic extraction ratio) (human hepatocytes) | EC90 (AhR; [4]) | EC50 (AhR; human HepG2 cells, Plate 1) | % Compound Metabolized at 30 min, No Inhibitor [3] | % Compound Metabolized at 30 min, CYP3A4 Inhibitor (CYP3A4) | % Inhibition Relative to Negative Control, 3A4 (CYP3A4) | % Compound Metabolized at 30 min, CYP1A2 Inhibitor (CYP1A2) | % Inhibition Relative to Negative Control, 1A2 (CYP1A2) | CLint (rat hepatocytes; 1 μM test compound) | EC90 (AhR; human HepG2 cells, Plate 1) | EC50 (AhR; human HepG2 cells, Plate 2) | EC90 (AhR; human HepG2 cells, Plate 2) | CLint (human hepatocytes; 1 μM test compound)
1 | O=C(c1nc(C(O)C(F)(F)F)cs1)c1c[nH]c2ccccc12 (stereo not drawn) [ARI088] | 60 min | 11.6 µL/min/1e6 cells | 43.7% | 54 min | 12.4 µL/min/1e6 cells | 24.1% |  |  |  |  |  |  |  |  |  |  |  | 
2 | CC(C)(O)c1csc(C(=O)c2c[nH]c3ccccc23)n1 [ARI-215, (1H-indol-3-yl)(4-(2-hydroxypropan-2-yl)thiazol-2-yl)methanone] | 54 min | 13.4 µL/min/1e6 cells | 47.3% | 36 min | 17.9 µL/min/1e6 cells | 25.9% | 135 nM | 119 nM |  |  |  |  |  |  |  |  |  | 
3 | CCOc1ccc(NC(C)=O)cc1 [Phenacitin] |  |  |  |  |  |  |  |  | 36% and 31% | 23% | 36% | 3% and 1% | 92% and 97% |  |  |  |  | 
4 | CC[C@@H](O)c1csc(C(=O)c2c[nH]c3ccc(F)cc23)n1 [ARI-195] | 78 min | 9.16 µL/min/1e6 cells | 38.0% | 36 min | 20.6 µL/min/1e6 cells | 26.5% | 847 nM | 289 nM |  |  |  |  |  |  |  |  |  | 
5 | Cc1ncc2n1-c1ccc(Cl)cc1C(c1ccccc1F)=NC2 [Midazolam] |  |  |  |  |  |  |  |  | 98% and 97% | 1% and 0% | 99% and 100% | 96% | 2% |  |  |  |  | 
6 | CCC(O)(CC)c1csc(C(=O)c2c[nH]c3cc(F)ccc23)n1 [ARI-210, (6-fluoro-1H-indol-3-yl)(4-(3-hydroxypentan-3-yl)thiazol-2-yl)methanone] | 24 min | 29.9 µL/min/1e6 cells | 66.7% | 42 min | 16 µL/min/1e6 cells | 25.4% | 627 nM | 241 nM |  |  |  |  |  |  |  |  |  | 
7 | CC[C@H](O)c1csc(C(=O)c2c[nH]c3ccc(F)cc23)n1 [ARI-194] | 36 min | 18.2 µL/min/1e6 cells | 55.0% | 36 min | 20.5 µL/min/1e6 cells | 26.5% | 517 nM | 409 nM |  |  |  |  |  |  |  |  |  | 
8 | CC[C@H](O)c1nc(C(=O)c2c[nH]c3cc(F)ccc23)cs1 [ARI-213] | 48 min | 13.9 µL/min/1e6 cells | 48.1% | 48 min | 14 µL/min/1e6 cells | 24.7% | 672 nM | 476 nM |  |  |  |  |  |  |  |  |  | 
9 | COC(=O)c1csc(C(=O)c2c[nH]c3ccccc23)n1 [ARI-001, ITE, reference compound] |  |  | 85.7% |  |  | 31.3% |  | 4440 nM |  |  |  |  |  | 89.786 μL/min/10^6 cells | 13200 nM | 29000 nM | 458000 nM | 767.365 μL/min/10^6 cells
10 | CCC(C)(O)c1csc(C(=O)c2c[nH]c3cc(F)ccc23)n1 (stereo not drawn) [ARI209, (6-fluoro-1H-indol-3-yl)(4-(2-hydroxybutan-2-yl)thiazol-2-yl)methanone] | 54 min | 12.2 µL/min/1e6 cells | 44.9% | 48 min | 14.7 µL/min/1e6 cells | 25.0% |  |  |  |  |  |  |  |  |  |  |  | 
11 | CC[C@@H](O)c1nc(C(=O)c2c[nH]c3cc(F)ccc23)cs1 [ARI-214] | 84 min | 8.01 µL/min/1e6 cells | 34.9% | 30 min | 21.5 µL/min/1e6 cells | 26.7% | 2810 nM | 582 nM |  |  |  |  |  |  |  |  |  | 
